Laboratory results: PubChem BioAssay AID330 (DTP/NCI, 2004)
“And” between values parts separate entries of the source, which are not always exact repeats. Equal entries are not always repeated. Inconclusive results and toxic doses are left out. The calls were made as follows: active = survival T/C of 150% or more; inactive = T/C below 125% in these data.

System: P388 leukemia ip, CD2F1 mice, survival T/C
Experiment: NCI In Vivo Anticancer Drug Screen. Data for tumor model P388 Leukemia (intraperitoneal) in CD2F1 (CDF1) mice
Settings: endpoint: median survival time, higher = longer survival
Summary of the method: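 Mice carrying the transplanted tumor received test compound or vehicle. Survival was recorded in each group, and the value is the treated-group measurement divided by that of the vehicle-treated control group.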

[1] = dose: 100.0 mg/kg/injection, schedule: Q01DX009 (ip), vehicle: Klucel (hydroxypropylcellulose) (HPC)
[2] = dose: 200.0 mg/kg/injection, schedule: Q01DX009 (ip), vehicle: Klucel (hydroxypropylcellulose) (HPC)
[3] = dose: 400.0 mg/kg/injection, schedule: Q01DX009 (ip), vehicle: Klucel (hydroxypropylcellulose) (HPC)
[4] = dose: 50.0 mg/kg/injection, schedule: Q01DX009 (ip), vehicle: saline
[5] = dose: 100.0 mg/kg/injection, schedule: Q01DX009 (ip), vehicle: saline
[6] = dose: 200.0 mg/kg/injection, schedule: Q01DX009 (ip), vehicle: saline
[7] = dose: 50.0 mg/kg/injection, schedule: Q01DX009 (ip), vehicle: Klucel (hydroxypropylcellulose) (HPC)
[8] = dose: 60.0 mg/kg/injection, schedule: Q01DX005 (ip), vehicle: saline with Tween-80
[9] = dose: 50.0 mg/kg/injection, schedule: Q01DX005 (ip), vehicle: Klucel (hydroxypropylcellulose) (HPC)
[10] = dose: 100.0 mg/kg/injection, schedule: Q01DX005 (ip), vehicle: Klucel (hydroxypropylcellulose) (HPC)
[11] = dose: 200.0 mg/kg/injection, schedule: Q01DX005 (ip), vehicle: Klucel (hydroxypropylcellulose) (HPC)
[12] = dose: 50.0 mg/kg/injection, schedule: Q01DX009 (ip), vehicle: saline with Tween-80
[13] = dose: 100.0 mg/kg/injection, schedule: Q01DX009 (ip), vehicle: saline with Tween-80
[14] = dose: 200.0 mg/kg/injection, schedule: Q01DX009 (ip), vehicle: saline with Tween-80
[15] = dose: 50.0 mg/kg/injection, schedule: Q01DX005 (ip), vehicle: saline with Tween-80

Measured: T/C

COc1cc2ccc3c(c2cc1OC)CN(Cc1ccccc1)CC3
inactive: [1] 100 % of control | [2] 100 % of control | [3] 109 % of control

CCCC(OC)=C(C(=O)OCC)C(=O)OCC
inactive: [4] 93 % of control | [5] 94 % of control | [6] 89 % of control

c1cc2c3c(cccc3c1)-c1nc3c(ccc4ccccc43)nc1-2
inactive: [7] 107 % of control | [1] 101 % of control | [2] 93 % of control | [3] 107 % of control

O=C(O)CC1OCC=C2C[N+]3([O-])CCC45c6ccccc6NC4C1C2CC53 (stereo unspecified)
inactive: dose: 15.0 mg/kg/injection, schedule: Q01DX005 (ip), vehicle: saline with Tween-80 105 % of control | dose: 30.0 mg/kg/injection, schedule: Q01DX005 (ip), vehicle: saline with Tween-80 105 % of control | [8] 99 % of control and 101 % of control

C=CCC1CCC/C1=N\O (stereo unspecified)
inactive: [8] 105 % of control | dose: 120.0 mg/kg/injection, schedule: Q01DX005 (ip), vehicle: saline with Tween-80 104 % of control | dose: 240.0 mg/kg/injection, schedule: Q01DX005 (ip), vehicle: saline with Tween-80 100 % of control

O=C1NC(O)c2ccccc2O1 (stereo unspecified)
inactive: [4] 106 % of control | [5] 123 % of control

COc1ccc(CCN=C(C)c2cc(Cl)cc(Cl)c2O)cc1OC
inactive: [9] 104 % of control | [10] 102 % of control | [11] 95 % of control

CC12CCC3C(C1)C(C(=O)O2)C(=O)OC3(C)C (stereo unspecified)
inactive: [7] 93 % of control | [1] 101 % of control | [2] 97 % of control

CC(N)C(=O)NC(C(=O)O)C(C)C (stereo unspecified)
inactive: dose: 25.0 mg/kg/injection, schedule: Q01DX009 (ip), vehicle: saline with Tween-80 102 % of control | dose: 50.0 mg/kg/injection, schedule: Q01DX005 (ip), vehicle: saline 93 % of control | [12] 100 % of control | dose: 100.0 mg/kg/injection, schedule: Q01DX005 (ip), vehicle: saline 100 % of control | [13] 96 % of control | dose: 200.0 mg/kg/injection, schedule: Q01DX005 (ip), vehicle: saline 98 % of control | [14] 111 % of control

Cc1cc2nc(Nc3nc(C)c(C)c(=O)[nH]3)[nH]c2cc1C
inactive: [4] 108 % of control | [5] 102 % of control | [6] 90 % of control

Cn1c(=O)c2c(nc3n2CC(CF)O3)n(C)c1=O (stereo unspecified)
inactive: [7] 104 % of control | [1] 104 % of control | [2] 99 % of control

COC1(OC)C(=S)N(C2CCCCC2)C(=S)N1C1CCCCC1
inactive: [9] 95 % of control | [10] 95 % of control | [11] 96 % of control

CCOC(=O)c1cncc(Br)c1
inactive: [15] 113 % of control | dose: 100.0 mg/kg/injection, schedule: Q01DX005 (ip), vehicle: saline with Tween-80 103 % of control | dose: 200.0 mg/kg/injection, schedule: Q01DX005 (ip), vehicle: saline with Tween-80 113 % of control

Cc1cccc(/C=C/C(=O)C(CN(C)C)CN(C)C)c1
inactive: dose: 6.25 mg/kg/injection, schedule: Q01DX005 (ip), vehicle: Klucel (hydroxypropylcellulose) (HPC) 104 % of control | dose: 12.5 mg/kg/injection, schedule: Q01DX005 (ip), vehicle: Klucel (hydroxypropylcellulose) (HPC) 100 % of control

CN1CCc2c1cc(-c1ccncc1)c1c2N(C)CC1
inactive: [9] 106 % of control | [10] 107 % of control | [11] 107 % of control

CC(OC1OC(C(=O)O)C(O)C(O)C1O)c1ccccc1 (stereo unspecified)
inactive: dose: 200.0 mg/kg/injection, schedule: Q01DX009 (ip), vehicle: saline sonified 100 % of control | dose: 400.0 mg/kg/injection, schedule: Q01DX009 (ip), vehicle: saline sonified 95 % of control

CCOC(=O)/C(=C(/C)OC(C)=O)c1ccc([N+](=O)[O-])cc1[N+](=O)[O-]
inactive: [4] 89 % of control | [5] 94 % of control | [6] 93 % of control

O=C(O)c1c[nH]c2cc(OCCOc3ccc(Br)cc3)ccc2c1=O
inactive: dose: 100.0 mg/kg/injection, schedule: Q04DX003 (ip), vehicle: saline with Tween-80 87 % of control | dose: 200.0 mg/kg/injection, schedule: Q04DX003 (ip), vehicle: saline with Tween-80 93 % of control | dose: 400.0 mg/kg/injection, schedule: Q04DX003 (ip), vehicle: saline with Tween-80 91 % of control

CC1(C)OCC(C2OC(C)(C)OC2C2OC(O)C=CC2=O)O1 (stereo unspecified)
inactive: dose: 0.78 mg/kg/injection, schedule: Q01DX009 (ip), vehicle: distilled water + Tween-80 108 % of control and 103 % of control | dose: 1.56 mg/kg/injection, schedule: Q01DX009 (ip), vehicle: distilled water + Tween-80 116 % of control and 103 % of control | dose: 3.13 mg/kg/injection, schedule: Q01DX009 (ip), vehicle: distilled water + Tween-80 100 % of control and 94 % of control | dose: 6.25 mg/kg/injection, schedule: Q01DX009 (ip), vehicle: distilled water + Tween-80 100 % of control

CC(=O)NC(CCC(C)(C)SCc1ccccc1)C(=O)O (stereo unspecified)
inactive: [12] 91 % of control | [13] 94 % of control | [14] 103 % of control

O=C(OCC(Cl)(Cl)Cl)N1[C@@H]2C=C[C@@H](N1C(=O)OCC(Cl)(Cl)Cl)[C@@]13CCCCC21O3 (stereo partly specified)
inactive: [9] 102 % of control | [10] 108 % of control | [11] 103 % of control

c1ccc2c(CNC3CCCCC3)c[nH]c2c1
inactive: dose: 25.0 mg/kg/injection, schedule: Q01DX009 (ip), vehicle: Klucel (hydroxypropylcellulose) (HPC) 109 % of control | [7] 98 % of control | [1] 96 % of control

c1ccc2c(C3CO3)c3ccccc3c(C3CO3)c2c1 (stereo unspecified)
inactive: [4] 99 % of control | [5] 116 % of control | [6] 116 % of control

CCOC(=O)C(NC(N)=O)C(=O)OCC
inactive: dose: 25.0 mg/kg/injection, schedule: Q01DX009 (ip), vehicle: water 89 % of control | dose: 50.0 mg/kg/injection, schedule: Q01DX009 (ip), vehicle: water 99 % of control | dose: 100.0 mg/kg/injection, schedule: Q01DX009 (ip), vehicle: water 100 % of control | dose: 200.0 mg/kg/injection, schedule: Q01DX009 (ip), vehicle: water 105 % of control | dose: 400.0 mg/kg/injection, schedule: Q01DX009 (ip), vehicle: water 91 % of control

CSc1ccc(NC(=O)ON2CCCCC2)cc1
inactive: [12] 99 % of control | [13] 108 % of control | [14] 101 % of control

Cc1ccc(C)c(C(=O)/C=C/C(=O)O)c1
inactive: dose: 25.0 mg/kg/injection, schedule: Q01DX005 (ip), vehicle: saline with Tween-80 114 % of control | [15] 115 % of control and 117 % of control

NC(=O)C(CCCCNc1c(C(=O)O)cc([N+](=O)[O-])cc1[N+](=O)[O-])NC(=O)c1ccccc1 (stereo unspecified)
inactive: dose: 60.0 mg/kg/injection, schedule: Q01DX005 (ip), vehicle: saline 100 % of control | dose: 120.0 mg/kg/injection, schedule: Q01DX005 (ip), vehicle: saline 105 % of control | dose: 240.0 mg/kg/injection, schedule: Q01DX005 (ip), vehicle: saline 100 % of control

COc1ccc(/C(C)=N/OC(=O)c2c(-c3ccccc3Cl)noc2C)cc1CN1CCOCC1
inactive: [4] 94 % of control | [5] 97 % of control | [6] 97 % of control

CCc1c(C)nc2cc(-c3cc(C)n4c(=O)c(CC)c(C)nc4c3)cc(C)n2c1=O
inactive: dose: 60.0 mg/kg/injection, schedule: Q01DX005 (ip), vehicle: Klucel (hydroxypropylcellulose) (HPC) 90 % of control | dose: 120.0 mg/kg/injection, schedule: Q01DX005 (ip), vehicle: Klucel (hydroxypropylcellulose) (HPC) 96 % of control | dose: 240.0 mg/kg/injection, schedule: Q01DX005 (ip), vehicle: Klucel (hydroxypropylcellulose) (HPC) 100 % of control
